# Measured values taken from PMC8319832, “Fine-Tuning of Alkaline Residues on the Hydrophilic Face Provides a Non-toxic Cationic α-Helical Antimicrobial Peptide Against Antibiotic-Resistant ESKAPE Pathogens” (Frontiers in Microbiology, 2021).
# Where a SMILES comes first, the peptide text is derived from it.
# Assays:
# [1] = tested on: S. aureus ATCC29213; experiment: MIC, broth dilution; format: cell-based, Staphylococcus aureus
# Protocol: (§1) All experiments were repeated at least three times.
# (§2) To study the influence of physiological ions on the antimicrobial activities of the peptides, The MICs of the peptides were also determined against the standard bacterial strains cultured in MHB containing various salts at their physiological concentrations (150 mM NaCl, 4.5 mM KCl, 1 mM MgCl2, 2 mM CaCl2, 6 μM NH4HCO3, and 4 μM FeCl3) ([Ma et al., 2016]).
# [2] = tested on: S. aureus 1176; experiment: MIC, broth dilution; format: cell-based, Staphylococcus aureus; settings: CLSI broth dilution, MHB, 37°C, 20 h, OD630, at least three repeats; clinical isolate
# Excerpt: as §1
# [3] = tested on: S. aureus 4188; experiment: MIC, broth dilution; format: cell-based, Staphylococcus aureus; settings: CLSI broth dilution, MHB, 37°C, 20 h, OD630, at least three repeats; clinical isolate, penicillin-resistant
# Excerpt: as §1
# [4] = tested on: S. aureus 9124; experiment: MIC, broth dilution; format: cell-based, Staphylococcus aureus; settings: CLSI broth dilution, MHB, 37°C, 20 h, OD630, at least three repeats; clinical isolate, MRSA
# Excerpt: as §1
# [5] = tested on: S. aureus ATCC 25923; experiment: MIC, broth dilution; format: cell-based, Staphylococcus aureus; settings: CLSI broth dilution, MHB, 37°C, 20 h, OD630, at least three repeats; standard strain
# Excerpt: as §1
# [6] = tested on: E. faecalis ATCC 29212; experiment: MIC, broth dilution; format: cell-based
# Protocol: as §1, §2
# [7] = tested on: E. faecium 898; experiment: MIC, broth dilution; format: cell-based, Enterococcus faecium; settings: CLSI broth dilution, MHB, 37°C, 20 h, OD630, at least three repeats; clinical isolate
# Excerpt: as §1
# [8] = tested on: E. coli 2678; experiment: MIC, broth dilution; format: cell-based, Escherichia coli; settings: CLSI broth dilution, MHB, 37°C, 20 h, OD630, at least three repeats; clinical isolate, ESBL
# Excerpt: as §1
# [9] = tested on: E. coli 2687; experiment: MIC, broth dilution; format: cell-based, Escherichia coli; settings: CLSI broth dilution, MHB, 37°C, 20 h, OD630, at least three repeats; clinical isolate, ESBL
# Excerpt: as §1
# [10] = tested on: E. coli ATCC35218; experiment: MIC, broth dilution; format: cell-based, Escherichia coli; settings: CLSI broth dilution, MHB, 37°C, 20 h, OD630, at least three repeats; standard strain
# Excerpt: as §1
# [11] = tested on: P. aeruginosa 9014; experiment: MIC, broth dilution; format: cell-based, Pseudomonas aeruginosa; settings: CLSI broth dilution, MHB, 37°C, 20 h, OD630, at least three repeats; clinical isolate, CRE, MDR
# Excerpt: as §1
# [12] = tested on: P. aeruginosa 9042; experiment: MIC, broth dilution; format: cell-based, Pseudomonas aeruginosa; settings: CLSI broth dilution, MHB, 37°C, 20 h, OD630, at least three repeats; clinical isolate
# Excerpt: as §1
# [13] = tested on: A. baumannii ATCC 19606; experiment: MIC, broth dilution; format: cell-based, Acinetobacter baumannii
# Protocol: as §1, §2
# [14] = tested on: K. pneumoniae ATCC 700603; experiment: MIC, broth dilution; format: cell-based, Klebsiella pneumoniae
# Protocol: as §1, §2
# [15] = tested on: K. pneumoniae 9126; experiment: MIC, broth dilution; format: cell-based, Klebsiella pneumoniae; settings: CLSI broth dilution, MHB, 37°C, 20 h, OD630, at least three repeats; clinical isolate, CRE
# Excerpt: as §1
# [16] = tested on: human embryonic kidney cell 293T (HEK293T); experiment: Cytotoxicity, CCK-8; format: cell-based; settings: up to 40 μg ml^–1, 24 h, CCK-8, OD 450 nm, three independent experiments
# Protocol: (§3) The cytotoxicity of the peptide was determined against mouse fibroblast cells L929 and human embryonic kidney cell 293T (HEK293T). Briefly, the cells were seeded at a density of 8,000 cells per well in a 96-well plate and cultured for 24 h in Dulbecco’s Modified Eagle Medium (DMEM, Gibco) supplemented with 10% fetal bovine serum (FBS, Gibco), 2 mM L-glutamine, 100 U ml^–1 penicillin, […] streptomycin (1% P/S, Invitrogen^TM), and at 37°C in a 5% of CO2 atmosphere. Then, different concentrations of the peptide (0, 10, 20, 30, and 40 μg ml^–1) were added into each well and co-incubated with the cells for 24 h. After 2 h incubation with 10 μM 2-(2-methoxy-4-nitrophenyl)-3-(4-nitrophenyl)-5-(2,4-disulfophenyl)-2H-tetrazolium (CCK-8, Yeasen, China), the cytotoxicity of the peptide was determined by measuring the optical density at 450 nm ([Wu et al., 2014]; [Li et al., 2020]).
# [17] = tested on: mouse fibroblast cells L929; experiment: Cytotoxicity, CCK-8; format: cell-based; settings: at 40 μg ml^–1, 24 h, CCK-8, OD 450 nm, three independent experiments
# Protocol: as §3
# [18] = tested on: ESBL-producing E. coli, CRE- and MDR P. aeruginosa, CRE- and MDR A. baumannii; experiment: MIC, summary over resistant gram-negative strains; format: cell-based; settings: summary of Table 4
# Excerpt: as §1
# [19] = salt sensitivity test, MHB, control without addition of salt ions
# [20] = CLSI broth dilution, MHB, 37°C, 20 h, OD630, at least three repeats, standard strain
smiles,measurement,setting,value
CC[C@H](C)[C@H](NC(=O)[C@H](CCCCN)NC(=O)[C@H](CCCCN)NC(=O)[C@@H](NC(=O)[C@@H](N)Cc1ccccc1)[C@@H](C)CC)C(=O)N[C@@H](C)C(=O)N[C@@H](CCCCN)C(=O)N[C@@H](CC(C)C)C(=O)N[C@@H](CC(C)C)C(=O)N[C@@H](CCCCN)C(=O)N[C@@H](CCCCN)C(=O)N[C@H](C(=O)N[C@@H](Cc1ccccc1)C(N)=O)[C@@H](C)CC [BmKn2-7K] (H-FIKKIAKLLKKIF-NH2),MIC,[1]; MHB with 4 μM FeCl3,5 µg/mL
same,MIC,[1]; MHB with 6 μM NH4HCO3,5 µg/mL
same,MIC,[1]; MHB with 1 mM MgCl2,5 µg/mL
same,MIC,[1]; MHB with 2 mM CaCl2,5 µg/mL
same,MIC,[1]; MHB with 4.5 mM KCl,5 µg/mL
same,MIC,[1]; MHB with 150 mM NaCl,5 µg/mL
same,MIC,[1]; [19],5 µg/mL
same,MIC,[2],2.5 µg/mL
same,MIC,[3],2.5 µg/mL
same,MIC,[4],2.5 µg/mL
same,MIC,[5],5 µg/mL
same,MIC,[6]; [20],5 µg/mL
same,MIC,[6]; MHB with 4 μM FeCl3,20 µg/mL
same,MIC,[6]; MHB with 6 μM NH4HCO3,20 µg/mL
same,MIC,[6]; MHB with 1 mM MgCl2,20 µg/mL
same,MIC,[6]; MHB with 2 mM CaCl2,10 µg/mL
same,MIC,[6]; MHB with 4.5 mM KCl,20 µg/mL
same,MIC,[6]; MHB with 150 mM NaCl,10 µg/mL
same,MIC,[6]; [19],5 µg/mL
same,MIC,[7],5 µg/mL
same,MIC,[8],10 µg/mL
same,MIC,[9],10 µg/mL
same,MIC,[10],10 µg/mL
same,MIC,[11],5 µg/mL
same,MIC,[12],5 µg/mL
same,MIC,[13]; [20],2.5 µg/mL
same,MIC,[13]; MHB with 4 μM FeCl3,5 µg/mL
same,MIC,[13]; MHB with 6 μM NH4HCO3,5 µg/mL
same,MIC,[13]; MHB with 1 mM MgCl2,2.5 µg/mL
same,MIC,[13]; MHB with 2 mM CaCl2,2.5 µg/mL
same,MIC,[13]; MHB with 4.5 mM KCl,5 µg/mL
same,MIC,[13]; MHB with 150 mM NaCl,2.5 µg/mL
same,MIC,[13]; [19],2.5 µg/mL
same,MIC,[14]; [20],10 µg/mL
same,MIC,[14]; MHB with 4 μM FeCl3,10 µg/mL
same,MIC,[14]; MHB with 6 μM NH4HCO3,10 µg/mL
same,MIC,[14]; MHB with 1 mM MgCl2,10 µg/mL
same,MIC,[14]; MHB with 2 mM CaCl2,10 µg/mL
same,MIC,[14]; MHB with 4.5 mM KCl,10 µg/mL
same,MIC,[14]; MHB with 150 mM NaCl,5 µg/mL
same,MIC,[14]; [19],10 µg/mL
same,MIC,[15],5 µg/mL
same,cytotoxicity (cell viability),[16],non-toxic
same,cytotoxicity (cell viability),[17],minor cytotoxicity
same,"MIC against ESBL E. coli, CRE/MDR P. aeruginosa, CRE/MDR A. baumannii",[18],2.5–10 μg ml^–1
